Where no end group is shown, it is not given here.
Tested on: HL-60 cells differentiated into the neutrophil-like cells
Experiment: β-hexosaminidase-secreting activity of neutrophil-like differentiated HL-60 cells
Format: cell-based, human
Settings: differentiated HL-60 cells; read-out: EC50, β-hexosaminidase-secreting activity
Outline: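 HL-60 cells were differentiated with 500 μM db-cAMP for 3 days at 37 °C, then stimulated with peptide for 10 min in HBHS/0.1% BSA, pH 7.4, containing 5 μg/ml cytochalasin B and DNase I. Released β-hexosaminidase was read at 405 nm after p-nitrophenyl-N-acetylglucosaminide hydrolysis (pH 4.5, 37 °C, 1 h). Secretion is expressed relative to 10 μM fMLP, with total enzyme from 0.05% Triton X-100 lysis.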

- EC50: 200 nM
Sequence: MLWNLLALHQIGQRTISTASHRH [No. 019]

— patent US7893199B2, “Peptides having neutrophil-stimulating activity” (National University Corporation Gunma University, priority 2006, dated 2011)
